Results: PubChem BioAssay (NCI)
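Growth conditions: 96-well plates. Treatment: test compound, 48 hours, 5 concentrations. Analysis: linear interpolation between bracketing concentrations; unreached endpoints set to highest concentration. GI50 = concentration required for 50% inhibition of growth. At the TGI there is no net growth.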

Columns and labels:
Test in all cases: NCI anticancer screen, dose series, 48 h
CAKI-1 renal = test system: CAKI-1 renal
IGROV1 ovarian = test system: IGROV1 ovarian
LOX IMVI melanoma = test system: LOX IMVI melanoma
A549 NSCLC = test system: A549 NSCLC
DU-145 prostate = test system: DU-145 prostate
T-47D breast = test system: T-47D breast
SNB-75 CNS = test system: SNB-75 CNS
KM12 colon = test system: KM12 colon
U251 CNS = test system: U251 CNS
BT-549 breast = test system: BT-549 breast
EKVX NSCLC = test system: EKVX NSCLC
UO-31 renal = test system: UO-31 renal
HL-60(TB) leukemia = test system: HL-60(TB) leukemia
TK-10 renal = test system: TK-10 renal
MALME-3M melanoma = test system: MALME-3M melanoma
PC-3 prostate = test system: PC-3 prostate
MDA-MB-435 = test system: MDA-MB-435
NCI-H522 lung = test system: NCI-H522 lung
HOP-62 NSCLC = test system: HOP-62 NSCLC
OVCAR-8 ovarian = test system: OVCAR-8 ovarian
OVCAR-3 ovarian = test system: OVCAR-3 ovarian
SK-MEL-5 melanoma = test system: SK-MEL-5 melanoma
NCI-H23 lung = test system: NCI-H23 lung
SK-MEL-2 melanoma = test system: SK-MEL-2 melanoma
RXF 393 renal = test system: RXF 393 renal
UACC-257 melanoma = test system: UACC-257 melanoma
NCI/ADR-RES ovarian = test system: NCI/ADR-RES ovarian
HT29 colon = test system: HT29 colon
HS 578T breast = test system: HS 578T breast
OVCAR-4 ovarian = test system: OVCAR-4 ovarian
OVCAR-5 ovarian = test system: OVCAR-5 ovarian
SF-295 CNS = test system: SF-295 CNS
UACC-62 melanoma = test system: UACC-62 melanoma
M14 melanoma = test system: M14 melanoma
HCT-15 colon = test system: HCT-15 colon
SK-MEL-28 melanoma = test system: SK-MEL-28 melanoma
SW-620 colon = test system: SW-620 colon
786-0 renal = test system: 786-0 renal
NCI-H226 lung = test system: NCI-H226 lung
NCI-H460 lung = test system: NCI-H460 lung
SF-539 CNS = test system: SF-539 CNS
MCF7 breast = test system: MCF7 breast
A498 renal = test system: A498 renal
SF-268 CNS = test system: SF-268 CNS
MOLT-4 leukemia = test system: MOLT-4 leukemia
SN12C renal = test system: SN12C renal
CCRF-CEM leukemia = test system: CCRF-CEM leukemia
K-562 leukemia = test system: K-562 leukemia
MDA-MB-231 breast = test system: MDA-MB-231 breast
RPMI-8226 leukemia = test system: RPMI-8226 leukemia
HOP-92 NSCLC = test system: HOP-92 NSCLC
COLO 205 colon = test system: COLO 205 colon
ACHN renal = test system: ACHN renal
SNB-19 CNS = test system: SNB-19 CNS
HCC-2998 colon = test system: HCC-2998 colon
HCT-116 colon = test system: HCT-116 colon
SR leukemia = test system: SR leukemia
SK-OV-3 ovarian = test system: SK-OV-3 ovarian

## COCCOc1cc(F)c2c(Nc3ccc(NC(=O)Cn4cc(C(C)C)nn4)cc3)ncnc2c1
CAKI-1 renal
  GI50: > 100 µM
  TGI: > 100 µM
IGROV1 ovarian
  GI50: > 100 µM
  TGI: > 100 µM
LOX IMVI melanoma
  GI50: > 100 µM
  TGI: > 100 µM
A549 NSCLC
  GI50: > 100 µM
  TGI: > 100 µM
DU-145 prostate
  GI50: > 100 µM
  TGI: > 100 µM
T-47D breast
  GI50: 8.11 µM
  TGI: > 100 µM
SNB-75 CNS
  GI50: 28.2 µM
  TGI: > 100 µM
KM12 colon
  GI50: 1.16 µM
  TGI: > 100 µM
U251 CNS
  GI50: 37.4 µM
  TGI: > 100 µM
BT-549 breast
  GI50: 33.6 µM
  TGI: > 100 µM
EKVX NSCLC
  GI50: > 100 µM
  TGI: > 100 µM
UO-31 renal
  GI50: > 100 µM
  TGI: > 100 µM
HL-60(TB) leukemia
  GI50: > 100 µM
  TGI: > 100 µM
TK-10 renal
  GI50: > 100 µM
  TGI: > 100 µM
MALME-3M melanoma
  GI50: 79.6 µM
  TGI: > 100 µM
PC-3 prostate
  GI50: > 100 µM
  TGI: > 100 µM
MDA-MB-435
  GI50: > 100 µM
  TGI: > 100 µM
NCI-H522 lung
  GI50: 35.5 µM
  TGI: > 100 µM
HOP-62 NSCLC
  GI50: 22.2 µM
  TGI: > 100 µM
OVCAR-8 ovarian
  GI50: 37.4 µM
  TGI: > 100 µM
OVCAR-3 ovarian
  GI50: > 100 µM
  TGI: > 100 µM
SK-MEL-5 melanoma
  GI50: 24.3 µM
  TGI: > 100 µM
NCI-H23 lung
  GI50: > 100 µM
  TGI: > 100 µM
SK-MEL-2 melanoma
  GI50: 44.7 µM
  TGI: > 100 µM
RXF 393 renal
  GI50: 10.2 µM
  TGI: > 100 µM
UACC-257 melanoma
  GI50: > 100 µM
  TGI: > 100 µM
NCI/ADR-RES ovarian
  GI50: > 100 µM
  TGI: > 100 µM
HT29 colon
  GI50: > 100 µM
  TGI: > 100 µM
HS 578T breast
  GI50: 16.5 µM
  TGI: > 100 µM
OVCAR-4 ovarian
  GI50: 19.2 µM
  TGI: > 100 µM
OVCAR-5 ovarian
  GI50: > 100 µM
  TGI: > 100 µM
SF-295 CNS
  GI50: 53.5 µM
  TGI: > 100 µM
UACC-62 melanoma
  GI50: 85.4 µM
  TGI: > 100 µM
M14 melanoma
  GI50: > 100 µM
  TGI: > 100 µM
HCT-15 colon
  GI50: > 100 µM
  TGI: > 100 µM
SK-MEL-28 melanoma
  GI50: > 100 µM
  TGI: > 100 µM
SW-620 colon
  GI50: > 100 µM
  TGI: > 100 µM
786-0 renal
  GI50: 39.1 µM
  TGI: > 100 µM
NCI-H226 lung
  GI50: 60.8 µM
  TGI: > 100 µM
NCI-H460 lung
  GI50: 51.3 µM
  TGI: > 100 µM
SF-539 CNS
  GI50: 6.41 µM
  TGI: > 100 µM
MCF7 breast
  GI50: > 100 µM
  TGI: > 100 µM
A498 renal
  GI50: > 100 µM
  TGI: > 100 µM
SF-268 CNS
  GI50: 37.5 µM
  TGI: > 100 µM
MOLT-4 leukemia
  GI50: > 100 µM
  TGI: > 100 µM
SN12C renal
  GI50: 71.6 µM
  TGI: > 100 µM
CCRF-CEM leukemia
  GI50: > 100 µM
  TGI: > 100 µM
K-562 leukemia
  GI50: 10.2 µM
  TGI: > 100 µM
MDA-MB-231 breast
  GI50: 41.6 µM
  TGI: > 100 µM
RPMI-8226 leukemia
  GI50: > 100 µM
  TGI: > 100 µM
HOP-92 NSCLC
  GI50: 5.99 µM
  TGI: 92 µM
COLO 205 colon
  GI50: > 100 µM
  TGI: > 100 µM
ACHN renal
  GI50: 51.5 µM
  TGI: > 100 µM
SNB-19 CNS
  GI50: 41 µM
  TGI: > 100 µM
HCC-2998 colon
  GI50: > 100 µM
  TGI: > 100 µM
HCT-116 colon
  GI50: 57.9 µM
  TGI: > 100 µM

## COc1cc(C(=O)c2cc(C)c3[nH]c4ccc(Cl)cc4c3c2C)cc(OC)c1OC
CAKI-1 renal
  GI50: 0.0521 µM
  TGI: 12.5 µM
IGROV1 ovarian
  GI50: 0.0438 µM
  TGI: 12.3 µM
LOX IMVI melanoma
  GI50: 0.0384 µM
  TGI: 5.52 µM
A549 NSCLC
  GI50: 0.134 µM
  TGI: 28.7 µM
DU-145 prostate
  GI50: 0.0459 µM
  TGI: 3.6 µM
T-47D breast
  GI50: 1.84 µM
  TGI: 39.3 µM
SNB-75 CNS
  GI50: 0.0254 µM
  TGI: 3.96 µM
KM12 colon
  GI50: 0.0531 µM
  TGI: 2.4 µM
U251 CNS
  GI50: 0.0425 µM
  TGI: 15 µM
BT-549 breast
  GI50: 0.0423 µM
  TGI: 4.55 µM
EKVX NSCLC
  GI50: 0.254 µM
  TGI: 23.4 µM
UO-31 renal
  GI50: 0.12 µM
  TGI: 11.5 µM
HL-60(TB) leukemia
  GI50: 0.0279 µM
  TGI: 0.0901 µM
TK-10 renal
  GI50: 2.71 µM
  TGI: 29.4 µM
MALME-3M melanoma
  GI50: 0.0791 µM
  TGI: 15.3 µM
PC-3 prostate
  GI50: 0.146 µM
  TGI: 13.7 µM
MDA-MB-435
  GI50: 0.0249 µM
  TGI: 0.0733 µM
NCI-H522 lung
  GI50: 0.0291 µM
  TGI: 1.95 µM
HOP-62 NSCLC
  GI50: 0.0756 µM
  TGI: 19.5 µM
OVCAR-8 ovarian
  GI50: 0.0439 µM
  TGI: 10.7 µM
OVCAR-3 ovarian
  GI50: 0.0329 µM
  TGI: 7.16 µM
SK-MEL-5 melanoma
  GI50: 0.0361 µM
  TGI: 0.196 µM
NCI-H23 lung
  GI50: 0.0444 µM
  TGI: 7.43 µM
SK-MEL-2 melanoma
  GI50: 0.575 µM
  TGI: 17.3 µM
UACC-257 melanoma
  GI50: 4.28 µM
  TGI: 32.3 µM
NCI/ADR-RES ovarian
  GI50: 0.032 µM
  TGI: 11.9 µM
HT29 colon
  GI50: 0.359 µM
  TGI: 10.7 µM
HS 578T breast
  GI50: 0.0364 µM
  TGI: 10.6 µM
OVCAR-4 ovarian
  GI50: 1.16 µM
  TGI: 27.2 µM
OVCAR-5 ovarian
  GI50: 0.0635 µM
  TGI: 18 µM
SF-295 CNS
  GI50: 0.0284 µM
  TGI: 0.303 µM
UACC-62 melanoma
  GI50: 0.0376 µM
  TGI: 8.4 µM
M14 melanoma
  GI50: 0.033 µM
  TGI: 12.4 µM
HCT-15 colon
  GI50: 0.0355 µM
  TGI: 4.25 µM
SK-MEL-28 melanoma
  GI50: 1.44 µM
  TGI: 17 µM
SW-620 colon
  GI50: 0.0415 µM
  TGI: 24.8 µM
786-0 renal
  GI50: 0.0634 µM
  TGI: 6.19 µM
NCI-H226 lung
  GI50: 0.679 µM
  TGI: 18.3 µM
NCI-H460 lung
  GI50: 0.035 µM
  TGI: 3.74 µM
SF-539 CNS
  GI50: 0.0284 µM
  TGI: 0.461 µM
MCF7 breast
  GI50: 0.0352 µM
  TGI: 13.2 µM
A498 renal
  GI50: 0.0242 µM
  TGI: 0.0805 µM
SF-268 CNS
  GI50: 0.182 µM
  TGI: 16.2 µM
MOLT-4 leukemia
  GI50: 0.046 µM
  TGI: > 47.4 µM
SN12C renal
  GI50: 0.0509 µM
  TGI: 13.2 µM
CCRF-CEM leukemia
  GI50: 0.0399 µM
  TGI: > 100 µM
K-562 leukemia
  GI50: 0.035 µM
  TGI: > 100 µM
MDA-MB-231 breast
  GI50: 0.0496 µM
  TGI: 2.32 µM
RPMI-8226 leukemia
  GI50: 0.0421 µM
  TGI: 18.6 µM
HOP-92 NSCLC
  GI50: 0.156 µM
  TGI: 4.65 µM
COLO 205 colon
  GI50: 0.517 µM
  TGI: 2.36 µM
ACHN renal
  GI50: 0.0593 µM
  TGI: 12.8 µM
SR leukemia
  GI50: 0.0493 µM
  TGI: 97.1 µM
SNB-19 CNS
  GI50: 0.0418 µM
  TGI: 19.2 µM
SK-OV-3 ovarian
  GI50: 0.666 µM
  TGI: 34.7 µM
HCC-2998 colon
  GI50: 0.0548 µM
  TGI: 5.29 µM
HCT-116 colon
  GI50: 0.0376 µM
  TGI: 3.19 µM
